# Measurements as given in DBAASP.
# “And” between values parts separate entries of the source, which are not always exact repeats. Equal values may be shown once.
# Experiments:
# Assay in all cases: ≥ marks a high value that may be exact or a test limit, other limits are often not marked, values filed in µg/mL are converted to µM
# [1] = test system: Cryptococcus neoformans ATCC 32045
# [2] = test system: Escherichia coli ATCC 2592
# [3] = test system: Candida albicans ATCC 10231
# [4] = test system: Pseudomonas aeruginosa ATCC 10145
# [5] = test system: Staphylococcus aureus ATCC 33591
# [6] = test system: Salmonella enterica subsp. enterica serovar Typhimurium ATCC 14028s
# [7] = test system: Salmonella enterica serovar typhimurium MS7953s
# [8] = test system: Aeromonas salmonicida 99-1
# Candida albicans C627 = test system: Candida albicans C627
# [9] = test system: Escherichia coli CGSC 4908
# [10] = test system: Staphylococcus aureus C623
# [11] = test system: Pseudomonas aeruginosa K799
# Escherichia coli DC2 = test system: Escherichia coli DC2
# [12] = test system: Staphylococcus epidermidis C621
# Escherichia coli UB1005 = test system: Escherichia coli UB1005
# [13] = test system: Pseudomonas aeruginosa Z61
# [14] = test system: Aeromonas salmonicida 97-4
# [15] = test system: Lacticaseibacillus rhamnosus 1.9021
# [16] = test system: Salmonella enterica subsp. enterica serovar Choleraesuis CVCC 503
# [17] = test system: Lacticaseibacillus rhamnosus 1.0911
# Escherichia coli K88 = test system: Escherichia coli K88
# [18] = test system: Escherichia coli O157:H7 CICC 21530
# [19] = test system: Pseudomonas aeruginosa ATCC 27853
# [20] = test system: Salmonella enterica subsp. enterica serovar Pullorum C79-13
# [21] = test system: Lacticaseibacillus rhamnosus 8014
# [22] = test system: Streptococcus agalactiae BNCC 185941
# [23] = test system: Pseudomonas aeruginosa PAO1
# [24] = test system: Staphylococcus aureus ATCC 43300
# [25] = test system: Escherichia coli ATCC 25922
# [26] = test system: Lacticaseibacillus rhamnosus 1.0936
# [27] = test system: Staphylococcus aureus ATCC 29213
# [28] = test system: Salmonella enterica subsp. enterica serovar Typhimurium ATCC 14028
# [29] = test system: Staphylococcus epidermidis ATCC 12228
# Escherichia coli JW0013 = test system: Escherichia coli JW0013
# Escherichia coli JJ2487 = test system: Escherichia coli JJ2487
# Escherichia coli J2210 = test system: Escherichia coli J2210
# [30] = test system: Salmonella typhimurium SL1344
# Escherichia coli O157:H7 = test system: Escherichia coli O157:H7
# [31] = test system: Salmonella enterica subsp. enterica serovar Enteritidis MH91989
# Escherichia coli MC1061 = test system: Escherichia coli MC1061
structure (smiles),measurement,setting,value
NCCCC[C@H](NC(=O)[C@H](Cc1ccccc1)NC(=O)[C@H](CCCCN)NC(=O)[C@H](CCCCN)NC(=O)[C@H](Cc1ccccc1)NC(=O)[C@H](CCCCN)NC(=O)[C@H](CCCCN)NC(=O)[C@H](Cc1ccccc1)NC(=O)[C@H](CCCCN)NC(=O)[C@H](CCCCN)NC(=O)[C@H](Cc1ccccc1)NC(=O)[C@H](CCCCN)NC(=O)[C@H](CCCCN)NC(=O)[C@H](Cc1ccccc1)NC(=O)[C@H](CCCCN)NC(=O)[C@H](CCCCN)NC(=O)[C@H](Cc1ccccc1)NC(=O)[C@H](CCCCN)NC(=O)[C@H](CCCCN)NC(=O)[C@H](Cc1ccccc1)NC(=O)[C@H](CCCCN)NC(=O)[C@H](CCCCN)NC(=O)[C@H](Cc1ccccc1)NC(=O)[C@@H](N)CCCCN)C(=O)O [KFKKFKKFKKFKKFKKFKKFKKFK],MIC,[1],15.3 µM
same,MIC,[2],13.7 µM
same,MIC,[3],54.5 µM
same,MIC,[4],≥ 77 µM
same,MIC,[5],≥ 77 µM
CC[C@H](C)[C@H](NC(=O)[C@H](CC(C)C)NC(=O)CNC(=O)[C@H](Cc1cnc[nH]1)NC(=O)[C@@H](NC(=O)[C@H](Cc1c[nH]c2ccccc12)NC(=O)[C@H](CCCCN)NC(=O)CNC(=O)[C@@H](NC(=O)[C@H](Cc1cnc[nH]1)NC(=O)[C@H](Cc1cnc[nH]1)NC(=O)[C@@H](NC(=O)CNC(=O)[C@H](Cc1cnc[nH]1)NC(=O)[C@H](Cc1ccccc1)NC(=O)[C@H](CC(C)C)NC(=O)[C@H](CC(C)C)NC(=O)CNC(=O)[C@H](CC(C)C)NC(=O)[C@@H](N)Cc1ccccc1)C(C)C)C(C)C)[C@@H](C)CC)C(=O)N[C@@H](Cc1cnc[nH]1)C(=O)NCC(=O)N[C@@H](Cc1cnc[nH]1)C(=O)N[C@@H](Cc1cnc[nH]1)C(C)=O [FLGLLFHGVHHVGKWIHGLIHGHH],MIC,[6],23.3 µM
same,MIC,[7],5.82 µM
same,MIC,[8],23.3 µM
same,MIC,Candida albicans C627,23.3 µM
same,MIC,[9],11.6 µM
same,MIC,[10],2.91 µM
same,MIC,[11],11.6 µM
same,MIC,Escherichia coli DC2,11.6 µM
same,MIC,[12],2.91 µM
same,MIC,Escherichia coli UB1005,5.82 µM
same,MIC,[13],2.91 µM
same,MIC,[14],23.3 µM
CC(C)C[C@H](NC(=O)CNC(=O)[C@H](CC(C)C)NC(=O)[C@H](Cc1c[nH]c2ccccc12)NC(=O)[C@H](CC(C)C)NC(=O)CNC(=O)[C@H](CC(C)C)NC(=O)[C@H](CCCN=C(N)N)NC(=O)[C@@H](N)CCCN=C(N)N)C(=O)N[C@@H](CCCN=C(N)N)C(=O)N[C@@H](CCCN=C(N)N)C(N)=O [RRLGLWLGLRR],MIC,[15],≥ 128 µM
same,MIC,[16],≥ 128 µM
same,MIC,[17],≥ 64 µM
same,MIC,Escherichia coli K88,2 µM
same,MIC,[18],8 µM
same,MIC,[19],4 µM
same,MIC,[20],2 µM
same,MIC,[21],≥ 128 µM
same,MIC,[22],≥ 128 µM
same,MIC,[23],8 µM
same,MIC,[24],16 µM
same,MIC,[25],4 µM and 8 µM
same,MIC,[26],≥ 128 µM
same,MIC,[27],16 µM
same,MIC,[28],32 µM
same,MIC,[29],128 µM
CC[C@H](C)[C@H](NC(=O)[C@H](CCCN=C(N)N)NC(=O)[C@H](CCCN=C(N)N)NC(=O)[C@@H]1CCCN1C(=O)[C@@H]1CCCN1C(=O)[C@H](CCCN=C(N)N)NC(=O)[C@@H]1CCCN1C(=O)[C@H](CCCN=C(N)N)NC(=O)[C@@H]1CCCN1C(=O)[C@H](CCCCN)NC(=O)[C@H](Cc1ccc(O)cc1)NC(=O)[C@@H]1CCCN1C(=O)[C@H](CCCN=C(N)N)NC(=O)[C@H](CCCCN)NC(=O)[C@H](CC(=O)O)NC(=O)[C@@H](N)C(C)C)C(=O)N[C@@H](Cc1ccc(O)cc1)C(=O)N[C@@H](CC(N)=O)C(=O)N[C@@H](CCCN=C(N)N)C(N)=O [VDKRPYKPRPRPPRRIYNR],MIC,Escherichia coli JW0013,0.337 µM
same,MIC,Escherichia coli JJ2487,0.158 µM
same,MIC,Escherichia coli J2210,0.122 µM
same,MIC,[30],0.158 µM
same,MIC,Escherichia coli O157:H7,0.974 µM
same,MIC,[31],0.158 µM
same,MIC,Escherichia coli MC1061,0.0609 µM
